PMC7125537 (Bioorganic & Medicinal Chemistry Letters, 2010)

Test system: DU-145 cells
Experiment: Migration assay
Type: cell-based, human

With `NC(=S)N/N=C(/c1cccc(Br)c1)c1ccccc1F` [analog 1, 3-bromophenyl-2′-fluorophenyl thiosemicarbazone] the “inhibition of DU-145 cell migration (in words)” value was “effective inhibitor of DU-145 cell invasion and migration”.
